Data: patent US10518266B2, “Microtiter plate and uses thereof” (ONEXIO BIOSYSTEMS LLC, priority 2016, dated 2019)
Like-named read-outs stand apart in the source and are kept apart here.

Tests used:
Assay type in all cases: cell-based
[1] = system: ER-transactivation in MVLNs; assay: ER-transactivation in MVLN luciferase cells co-cultured with HepaRG cells in the device; settings: MVLN co-cultured with HepaRG vs mono-culture; FIG. 18C
HEK293 cells [2] = system: HEK293 cells
HEK293 cells [3] = assay: Conferred cytotoxicity assay, HEK293 cells in co-culture with primary human hepatocytes in the device; settings: primary human hepatocytes (PHH) as bioactivator vs HEK293 mono-culture; FIG. 18a,b
[4] = system: estrogen receptor driven luciferase reporter protein stably expressed in the MVLN cell line; assay: MVLN estrogen receptor driven luciferase reporter assay, co-culture with HepG2 cells in the device

Oc1ccc(Cc2ccccc2)cc1 [4-benzylphenol]
ER-transactivation in MVLNs (metabolic competence of the device) [1]: shows competence

COc1cc2c(c3oc(=O)c4c(c13)CCC4=O)[C@@H]1C=CO[C@@H]1O2 [aflatoxin]
conferred toxicity to HEK293 cells (HEK293 cells [2]): conferred toxicity

COc1cccc2c1C(=O)c1c(O)c3c(c(O)c1C2=O)C[C@@](O)(C(=O)CO)C[C@@H]3O[C@H]1C[C@H](N)[C@H](O)[C@H](C)O1 [doxorubicin]
conferred toxicity to HEK293 cells (HEK293 cells [3]): conferred toxicity

C[C@]12CC[C@H]3[C@@H](CCC4=CC(=O)CC[C@@]43C)[C@@H]1CC[C@@H]2O [testosterone]
MVLN reporter activity [4]: activates MVLN reporter activity
